Measured values published in patent US12390467B2, “Necroptosis inducers or autophagy inhibitors or a combination thereof” (The University of Toledo, priority 2018, dated 2025).

Assays:
Format in all cases: cell-based
[1] = system: MDA-MB231 (TNBC cell line); experiment: MTT cell viability assay, MDA-MB231; settings: Homo sapiens, MDA-MB-231, 72 h, read-out: IC50 ± SD, MDA-MB231
Experimental: (§1) The following cancer and non-cancer cell lines were used in the initial cytotoxicity screening of the TPH104 compounds: triple negative breast cancer (TNBC): MDA-MB468, MDA-MB 231, and BT-20; non-TNBC: MCF-7 and ZR-75-1; ovarian: Ov2008; prostate: DU145; colon: HCT-116, S1, and LOVO; lung: H460; normal kidney: HEK-293; normal breast: HMEC; and normal colon: CRL-1459. All cells were cultured in Dulbecco's modified Eagle medium (DMEM), supplemented with 10% fetal bovine serum (FBS), and 1% penicillin/streptomycin (P/S). Cells were allowed to grow as adherent monolayers in T25 flasks in a humidified incubator with 5% CO2 at 37° C. for a period of 24 h, unless otherwise specified for certain experiments.
(§2) The MTT assay was used to determine the cytotoxicity of all of the compounds. Briefly, in a 96-well flat-bottom cell culture plate, the cells were seeded at a density between 3-5×10^3 cells/well (180 μl in each well) and incubated for 24 h (a hemocytometer was used for cell counting). The next day, the cells were incubated with different concentrations of the nine compounds (0, 0.1, 0.3, 1, 3, 10, 30, and 100 μM) for 72 h. After 72 h, 20 μl of 5 mg/ml of 3-(4,5-dimethylthiazol-2-yl)-2,5-diphenyltetrazolium bromide (MTT) was added to the plate and incubated with the cells for 3 h at 37° C. In this experiment, the living cells will reduce the soluble MTT dye to non-soluble purple formazan crystals. Following incubation, the media containing MTT removed via suction and 100 μL of 100% dimethyl sulfoxide (DMSO) was added to dissolve the formazan crystals. Subsequently, the plate was shaken for 2 minutes and the absorbance was measured at a wavelength of 570 nm using a SpectraMax iD3 Multi-Mode Microplate Reader (Molecular Devices, Sunnyvale, CA). The IC50 values of each compound were calculated and used to determine the selectivity ratio (IC50 in normal cells/IC50 in cancer cells) of each compound as previously described. Based on the results obtained from these experiments, the compound TPH104, which had the lowest IC50 value, was selected for further experiments.

[2] = system: MDA-MB468 (TNBC cell line); experiment: MTT cell viability assay, MDA-MB468; settings: Homo sapiens, MDA-MB-468, 72 h, read-out: IC50 ± SD, MDA-MB468
Experimental: as §1, §2

[3] = system: ZR-75-1 (non-TNBC cell line); experiment: MTT cell viability assay, ZR-75-1; settings: Homo sapiens, ZR-75-1, 72 h, read-out: IC50 ± SD, ZR-75-1
Experimental: as §1, §2

[4] = system: MCF-7 (non-TNBC cell line); experiment: MTT cell viability assay, MCF-7; settings: Homo sapiens, MCF7, 72 h, read-out: IC50 ± SD, MCF-7
Experimental: as §1, §2

[5] = system: normal human mammary epithelial cells (HMEC); experiment: MTT cell viability assay, HMEC; settings: Homo sapiens, HMEC; MTT, 72 h; Normal; read-out: IC50 ± SD, HMEC
Experimental: as §1, §2

[6] = system: TNBC cell lines; experiment: Cytotoxicity screening (MTT), TNBC cell lines overall; settings: classification of Table 1 cytotoxicity data
Text: To this end, several commercial databases were searched, and 17 similar molecules from the VitasM database were retrieved with considerable structural diversity in terms of the substitution on the aryl ring A attached to the thienopyrimidine scaffold and aryl ring B attached to hydrazino moiety. Further, the biological evaluation of the 17 molecules sheds light on the structural features deemed important for the selective cytotoxicity shown by this class of molecules. With this understanding, the 17 molecules were subjected to a screening protocol comprising of two TNBC, two non-TNBC, and one normal cell lines.
as §1, §2

[7] = target: T1, P-gp (ABCB1), DU145TXR prostate cancer cells (Homo sapiens, UniProt P08183); experiment: Calcein AM assay for P-gp modulation; settings: concentration dependent
T1 construct: endogenous in cells; host or cells: DU145TXR prostate cancer cells
T1 sequence (P08183 whole entry): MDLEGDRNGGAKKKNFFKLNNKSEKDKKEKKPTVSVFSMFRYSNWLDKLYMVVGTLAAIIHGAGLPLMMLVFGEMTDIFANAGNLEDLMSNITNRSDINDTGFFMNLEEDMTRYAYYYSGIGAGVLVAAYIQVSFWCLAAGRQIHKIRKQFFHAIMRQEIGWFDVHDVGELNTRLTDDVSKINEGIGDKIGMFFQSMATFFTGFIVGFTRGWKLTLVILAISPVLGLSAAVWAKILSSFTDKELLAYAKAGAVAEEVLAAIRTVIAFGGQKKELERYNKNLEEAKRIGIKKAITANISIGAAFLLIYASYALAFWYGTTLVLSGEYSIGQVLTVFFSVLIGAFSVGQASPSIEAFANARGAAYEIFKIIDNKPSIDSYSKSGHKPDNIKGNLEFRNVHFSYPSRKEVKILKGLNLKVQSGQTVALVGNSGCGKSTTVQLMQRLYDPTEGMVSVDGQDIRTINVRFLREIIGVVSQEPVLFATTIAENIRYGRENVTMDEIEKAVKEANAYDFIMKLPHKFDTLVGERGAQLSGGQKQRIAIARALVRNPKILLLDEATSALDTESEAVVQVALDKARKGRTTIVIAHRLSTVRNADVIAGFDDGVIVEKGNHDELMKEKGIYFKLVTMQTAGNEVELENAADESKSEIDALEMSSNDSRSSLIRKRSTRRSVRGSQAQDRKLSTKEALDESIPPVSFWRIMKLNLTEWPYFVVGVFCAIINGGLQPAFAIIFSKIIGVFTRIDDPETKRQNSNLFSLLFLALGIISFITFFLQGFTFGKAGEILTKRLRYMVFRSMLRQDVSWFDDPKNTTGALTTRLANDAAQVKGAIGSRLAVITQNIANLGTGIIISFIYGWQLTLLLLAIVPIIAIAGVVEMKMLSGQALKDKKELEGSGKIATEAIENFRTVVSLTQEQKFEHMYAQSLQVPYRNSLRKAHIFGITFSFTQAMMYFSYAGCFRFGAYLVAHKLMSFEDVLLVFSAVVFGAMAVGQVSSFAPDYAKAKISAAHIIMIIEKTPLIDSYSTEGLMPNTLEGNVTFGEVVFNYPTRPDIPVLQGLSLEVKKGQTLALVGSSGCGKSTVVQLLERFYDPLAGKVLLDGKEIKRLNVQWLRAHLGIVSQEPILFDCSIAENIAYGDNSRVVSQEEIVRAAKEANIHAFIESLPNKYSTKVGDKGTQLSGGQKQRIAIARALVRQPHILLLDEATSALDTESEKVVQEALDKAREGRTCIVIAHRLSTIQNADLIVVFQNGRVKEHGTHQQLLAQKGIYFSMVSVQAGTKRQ
Experimental: Ability of P-gp to efflux Calcein AM is used to identify the molecules which interfere with P-gp transporter activity. About 10000 cells of DU145TXR prostate cancer cells were seeded in each well in 96 well plates and allowed to grow until confluency for 4-5 days. Then media was replaced with phenol red free RPMI media and cells were treated with indicated concentrations of TPH104s and 1 μg/mL of Calcein AM. Fluorescence measured after 60 minutes with excitation at 485/20 nm and at emission 535/20 nm using the BioTek Cytation 5 imaging multi-mode reader (Bio-Tek, Winooski, VT). DMSO (0.5% v/v) was used as the vehicle, and 15 μM of Pgp inhibitor SMU 45 was used as a positive control. (n=6 in each trial).

[8] = target: T2, BCRP (ABCG2), MCF-7 M100 breast cancer cells (Homo sapiens, UniProt Q9UNQ0); experiment: Hoechst 33342 assay for BCRP modulation; settings: concentration dependent
T2 construct: endogenous in cells; host or cells: MCF-7 M100 breast cancer cells
T2 sequence (Q9UNQ0 whole entry): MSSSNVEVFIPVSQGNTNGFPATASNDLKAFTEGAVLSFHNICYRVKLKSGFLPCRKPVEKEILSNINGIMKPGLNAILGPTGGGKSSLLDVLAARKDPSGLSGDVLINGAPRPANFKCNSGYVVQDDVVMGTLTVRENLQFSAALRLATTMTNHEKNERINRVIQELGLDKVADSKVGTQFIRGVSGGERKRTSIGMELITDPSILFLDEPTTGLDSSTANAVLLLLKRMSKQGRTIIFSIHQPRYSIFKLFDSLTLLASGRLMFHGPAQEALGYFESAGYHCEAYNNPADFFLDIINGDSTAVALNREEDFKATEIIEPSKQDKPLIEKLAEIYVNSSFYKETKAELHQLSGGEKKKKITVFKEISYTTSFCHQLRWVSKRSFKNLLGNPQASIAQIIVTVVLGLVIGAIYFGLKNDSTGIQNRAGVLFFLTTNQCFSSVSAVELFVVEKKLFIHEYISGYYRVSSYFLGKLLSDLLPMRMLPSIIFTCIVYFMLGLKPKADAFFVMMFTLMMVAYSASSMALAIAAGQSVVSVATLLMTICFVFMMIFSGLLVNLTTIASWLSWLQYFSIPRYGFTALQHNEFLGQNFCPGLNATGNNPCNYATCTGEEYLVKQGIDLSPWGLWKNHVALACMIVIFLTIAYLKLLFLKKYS
Experimental: Ability of BCRP to efflux nuclear stain Hoechst 33342 was used to identify the molecules which interfere with BCRP transporter activity. About 14000 cells of MCF-7 M100 breast cancer cells were seeded in each well in 96 well plates and allowed to grow until confluency for 4-5 days. Then media was replaced with phenol red free RPMI media and cells were treated with indicated concentrations of TPH104s and 5 μg/mL of Hoechst 33342. Fluorescence measured after 60 minutes with excitation at 361/20 nm and at emission 497/20 nm using the BioTek Cytation 5 imaging multi-mode reader (Bio-Tek, Winooski, VT). DMSO (0.5% v/v) was used as the vehicle, and 0.5 μM of BCRP inhibitor, Ko143 was used as a positive control and 15 μM of P-gp modulator, verapamil was used as negative control.

Cc1ccc(-c2csc3ncnc(N/N=C/c4ccc(Br)cc4O)c23)cc1 [TPH104m]
IC50 [1]: 0.44 ± 0.21 µM
IC50 [2]: 0.29 ± 0.01 µM
IC50 [3]: > 100 µM
IC50 [4]: 2.73 ± 1.02 µM
IC50 [5]: > 100 µM
potency compared to TPH104 [6]: comparable potency to that of TPH104
efflux function of ABCB1 [7]: blocking the efflux function
efflux function of ABCG2 [8]: blocking the efflux function
